Laboratory results from ChEMBL document CHEMBL4400567, “Discovery of novel selective Janus kinase 2 (JAK2) inhibitors bearing a 1H-pyrazolo[3,4-d]pyrimidin-4-amino scaffold” (Bioorg Med Chem, 2019).

Experiments:
[1] = test system: THP-1; experiment: cells; type: ADME, cell-based; conditions: Homo sapiens
Description: Cytotoxicity against IL-4 induced JAK1/3 activated human THP1 cells preincubated for 1 hr followed by IL-4 induction and measured after 1 hr by CellTiter-Glo assay

[2] = test system: HEL; experiment: cells; type: functional, cell-based; conditions: Homo sapiens, 48 h
Description: Antiproliferative activity against human HEL cells harboring JAK2 V617F mutant measured after 48 hrs by CellTiter-Glo assay

[3] = cells; type: ADME, cell-based; conditions: Homo sapiens, NK92, 48 h
Description: Cytotoxicity against human NK92 cells harboring JAK1/3 measured after 48 hrs by CellTiter-Glo assay

[4] = test system: TF-1; experiment: cells; type: functional, cell-based; conditions: Homo sapiens, TF-1, 48 h
Description: Antiproliferative activity against JAK2 wild-type human TF1 cells measured after 48 hrs by CellTiter-Glo assay

[5] = target: Tyrosine-protein kinase JAK1 (Homo sapiens, UniProt P23458); type: ADME
Tyrosine-protein kinase JAK1, sequence (P23458 whole entry): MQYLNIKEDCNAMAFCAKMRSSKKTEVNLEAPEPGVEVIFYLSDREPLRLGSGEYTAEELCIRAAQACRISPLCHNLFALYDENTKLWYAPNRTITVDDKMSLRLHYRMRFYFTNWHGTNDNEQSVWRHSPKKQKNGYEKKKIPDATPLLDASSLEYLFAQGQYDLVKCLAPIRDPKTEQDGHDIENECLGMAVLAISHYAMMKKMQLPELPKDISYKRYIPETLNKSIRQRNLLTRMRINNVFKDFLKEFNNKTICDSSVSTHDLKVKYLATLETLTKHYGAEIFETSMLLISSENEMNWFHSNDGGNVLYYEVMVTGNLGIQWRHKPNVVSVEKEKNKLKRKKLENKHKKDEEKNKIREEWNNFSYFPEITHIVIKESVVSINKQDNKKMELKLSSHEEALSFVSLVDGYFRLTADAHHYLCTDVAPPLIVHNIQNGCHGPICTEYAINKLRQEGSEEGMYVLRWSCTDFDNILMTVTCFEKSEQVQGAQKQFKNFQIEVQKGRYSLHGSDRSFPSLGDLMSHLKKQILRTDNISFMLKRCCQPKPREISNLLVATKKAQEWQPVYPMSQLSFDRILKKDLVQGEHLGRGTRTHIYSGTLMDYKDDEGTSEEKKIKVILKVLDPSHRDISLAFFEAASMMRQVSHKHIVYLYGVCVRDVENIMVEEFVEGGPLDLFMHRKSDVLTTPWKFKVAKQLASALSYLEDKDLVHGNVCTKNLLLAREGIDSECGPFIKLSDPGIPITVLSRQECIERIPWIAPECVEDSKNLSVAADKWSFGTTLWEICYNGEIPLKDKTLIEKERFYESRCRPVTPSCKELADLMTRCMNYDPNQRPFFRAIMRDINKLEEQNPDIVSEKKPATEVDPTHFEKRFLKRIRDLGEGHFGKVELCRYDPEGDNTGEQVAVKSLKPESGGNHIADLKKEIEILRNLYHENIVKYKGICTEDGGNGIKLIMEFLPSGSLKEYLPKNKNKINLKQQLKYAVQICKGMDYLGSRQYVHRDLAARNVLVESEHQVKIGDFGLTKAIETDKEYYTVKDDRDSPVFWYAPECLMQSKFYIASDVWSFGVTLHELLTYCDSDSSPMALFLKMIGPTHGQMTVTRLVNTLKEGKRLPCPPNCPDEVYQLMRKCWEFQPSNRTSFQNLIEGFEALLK

| IC50 [1] | IC50 [2] | IC50 [3] | IC50 [4] | IC50 [5] | Structure (SMILES) |
| --- | --- | --- | --- | --- | --- |
| 28.8 µM | 8.2 µM | 23.6 µM | 7.1 µM | 0.215 µM | C=CC(=O)N1CCCC(n2nc(-c3cc(C=O)n(C)n3)c3c(N)ncnc32)C1 (stereo not given) |
| 18.5 µM | 4.7 µM | 22.1 µM | 2 µM | 0.104 µM | C=CC(=O)N1CCC(n2nc(-c3cc(C(C)(C)O)n(C)n3)c3c(N)ncnc32)C1 (stereo not given) |
